SMILES strings stand for the structures.

Assay [1] deals with MAP/ERK signal in parental CHO cell line. Briefly: Western blot of MAP/ERK phosphorylation, parental CHO cell line without human EBI2. The conditions noted are these: high concentrations. It is filed as cell-based, Chinese hamster. The procedure:
(§1) Cells (E2=CHO/AEQ/Gqi5/hEBI2) were seeded at 2×10^5 cell/well in a 12 well plate (TPP #92012) and incubated at 37° C./5% CO2 overnight. The next day medium was removed and cells were starved in serum-free medium for 4 h. Subsequently compound was added for 5 min at RT before cells were lysed (70 ul, 0.5% Triton-X100, 300 mM NaCl, 50 mM Tris pH7.5, Complete™ protease inhibitor cocktail Roche #04693124001). Cell lysates were resolved by gradient SDS-PAGE (NuPage™4-12%, #NP0322Box), transferred by semi-dry blotting to nitrocellulose (Invitrogen, #LC2001) and probed with a phospho p42/44 MAPK (T202/Y204) rabbit mAb (Cell Signalling #4376S). After treatment with a secondary goat anti rabbit-HRP (Pierce #41460) antibody the blots were developed for chemiluminescence (SuperSignal West Dura™, Pierce #34075) and visualized using a BioRad GEL DOC™ imaging system.
On the technique in general: A western blot detects proteins with antibodies after separation by electrophoresis.

Assay [2] has as its system MAP/ERK signaling pathway (p44/42 MAP kinase). Briefly: Western blot of MAP/ERK phosphorylation, EBI2 expressing CHO cell line. The conditions noted are these: 5 min after compound addition. It counts as cell-based, Chinese hamster. The method, then: as §1
In the next assay the target is hEBI2 (Homo sapiens, UniProt P32249). Nature of the assay: luminescent aequorin functional assay, hEBI2 CHO-Aeq (Gqi5) cells. It is filed as cell-based. The arrangement: expressed in transfected cells; host or cells: CHO-K1 expressing apoaequorin (CHO-Aeq) with Gqi5; line E2. From the text:
The human EBI2 was inserted into the pEFIN3 vector at the EcoRI and XbaI sites in the multiple cloning site. Mouse EBI2 was cloned using RT-PCR from mouse genomic DNA and corresponded to the Genbank accession number Q3U6B2. The mouse EBI2 was inserted into the pEFIN3 vector at the EcoRI and XbaI sites in the multiple cloning site. Plasmids expressing human and mouse EBI2 were stably transfected in CHO-K1 and HEK293 cells expressing the apoaequorin (CHO-Aeq and HEK-Aeq) (Table 1). mRNA sequence integrity of EBI2 gene was checked using RT-PCR at T0 & T30 culture times in CHO cells.
hEBI2 CHO-Aeq cell lines were screened in a luminescent aequorin functional assay against proprietary libraries of natural ligands and collection of tissue extracts.
3 oxysterol and 3 vitamin D3 compounds were tested for EBI2 activation in an aequorin assay.

Sequence of hEBI2 (P32249 whole entry): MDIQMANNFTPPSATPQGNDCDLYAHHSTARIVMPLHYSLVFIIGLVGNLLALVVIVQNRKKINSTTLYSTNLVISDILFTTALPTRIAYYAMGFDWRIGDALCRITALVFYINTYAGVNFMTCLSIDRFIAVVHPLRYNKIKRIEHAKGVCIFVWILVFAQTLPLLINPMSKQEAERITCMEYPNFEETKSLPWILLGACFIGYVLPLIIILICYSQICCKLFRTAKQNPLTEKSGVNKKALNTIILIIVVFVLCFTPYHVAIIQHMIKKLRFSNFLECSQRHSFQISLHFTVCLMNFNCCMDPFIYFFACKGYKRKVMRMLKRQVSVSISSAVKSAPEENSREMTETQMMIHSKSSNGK

`C[C@H](CCCC(C)(C)O)[C@H]1CC[C@H]2[C@@H]3[C@H](O)C=C4C[C@@H](O)CC[C@]4(C)[C@H]3CC[C@]12C` [7a,25DHC, cholest-5-ene-3b,7a,25-triol]: the “activation of MAP/ERK signal in control cell line” value in assay [1] is “do not activate”. Moreover, the “activation of MAP/ERK signaling pathway (p44/42 MAP kinase phosphorylation)” value in assay [2] is listed as “potently activate”.

For the compound `C[C@H](CCCC(C)(C)O)[C@H]1CC[C@H]2[C@@H]3[C@@H](O)C=C4C[C@@H](O)CC[C@]4(C)[C@H]3CC[C@]12C` [7b,25DHC, cholest-5-ene-3b,7b,25-triol], the “efficacy compared to the ATP response” value on hEBI2 (ATP response = endogenous P2Y receptors) is on record as “greater than 100%”. At hEBI2 (Gqi5 and Gα16 (=WTA11)), the “activation of hEBI2 in different CHO-Aeq cell backgrounds” value was “activation”. At hEBI2 (compared to WT CHO-AeqGqi5 cells and unrelated GPCRs HCR and GPR23), the “specificity and selectivity of hEBI2 activation” value is “specifically and selectively activates”.

Values taken from US8497075B2, “Methods of identifying a modulator that inhibits the binding between Epstein-Barr virus induced receptor 2 and cholesterol derived ligands” (Novartis AG, priority 2008, dated 2013).
